Measured values: patent publication US5462933A, “Modified bile acid conjugates, and their use as pharmaceuticals” (Hoechst Aktiengesellschaft, priority 1989, dated 1995)

Key:
[1] = In vivo perfused liver: absorption from portal vein blood and excretion into the bile; parameters: species or system rat; settings: after W (Chlorambucil) into mesenteric vein
Protocol: In order to investigate a selective absorption of bile acid derivatives into the liver and their hepatotropic action, the appropriate derivatives were injected as a bolus into a mesenteric vein of anesthetized rats and the excretion of these derivatives and the corresponding active compounds or active compound metabolites into the bile was analysed.
Male Sprague-Dawley rats (300-500 g bodyweight) had their food withdrawn and received water ad libitum. After tracheotomy, the abdomen was opened by median section under urethane anesthesia ([…] i.m. urethane 30%). The pylorus was ligated and the bile duct was cannulated by advancing a polyethylene tube (d=0.05 mm) up to the liver and the bile was drained. The volume of secretion was measured at 15 minute intervals. After a preliminary period of 60 minutes, the substances (0.5 ml of a 1 mM solution in 0.9% NaCl solution) were administered into a mesenteric vein in the course of 30 sec and the bile was collected at prestated time intervals (2, 4, 6, 8, 10, 15, 20, 30, 40, 50, 60, 70, 80, 90, 100, 110 and 120 min). The bile acid derivative was administered first, and the appropriate active compound was administered after a collection period of 2 hours. 120 min after administration of test substance, the bladder volume was measured and the urine was also collected. The bile and urine samples were stored on ice during the experiment and then deep-frozen.
Each 10 μl bile sample was applied to TLC plates (10×20 cm, silica gel 60 specific layer thickness 0.25 mm, No. 37581 Riedel de Haen, Seelze, Federal Republic of Germany) using Microcaps (Drummond, Broomall, USA) and the thin-layer plates were dried in the air for 20 min.
The plates were developed in the following mobile phases: Substance Mobile phase
The constituents of the mobile phases were bought from the usual manufacturers in the highest possible purity grade. After developing and drying the plates, the distribution of the active compounds and the bile acid derivatives, or their metabolites, was determined by densitometry (CD 50 densitometer, DESAGA; Heidelberg). Detection was carried out in reflection mode with linear sampling at the wavelengths 252 nm (chlorambucil/chlorambucil conjugate) or 260 nm (remaining substances).
In order to evaluate the chromatograms, the relative intensity of the bile acid derivatives, the active compounds or the active compound metabolites on a chromatogram was given in surface area units.

[2] = target: T1, Na+-dependent bile acid transport system (Oryctolagus cuniculus, UniProt Q28727); test: Inhibition of Na+-dependent [3H]taurocholate absorption into brush-border membrane vesicles of the ileum; assay type: biochemical, rabbit; settings: for IC50: read-out: IC50
T1 construct: brush-border membrane vesicles from the ileum of rabbits; from tissue; host or cells: terminal ileum of male New Zealand rabbits, brush-border membrane vesicles
T1 sequence (Q28727 1-347): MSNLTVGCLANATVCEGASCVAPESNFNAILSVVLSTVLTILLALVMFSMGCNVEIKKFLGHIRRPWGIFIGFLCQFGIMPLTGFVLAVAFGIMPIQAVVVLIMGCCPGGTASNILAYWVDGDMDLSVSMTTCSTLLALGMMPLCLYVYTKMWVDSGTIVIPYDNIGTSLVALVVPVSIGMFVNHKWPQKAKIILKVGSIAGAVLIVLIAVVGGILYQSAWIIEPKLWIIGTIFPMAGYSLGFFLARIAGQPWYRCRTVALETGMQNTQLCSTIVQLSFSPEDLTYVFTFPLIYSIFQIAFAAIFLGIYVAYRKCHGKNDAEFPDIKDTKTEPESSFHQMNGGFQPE
Protocol: The preparation of brush-border membrane vesicles from the intestinal cells of the small intestine was carried out using the so-called Mg^2+ precipitation method. Male New Zealand rabbits (2-2.5 kg body weight) were sacrificed by intravenous injection of 0.5 ml of T-61^R. The small intestine was removed and rinsed with ice-cold physiological saline solution. The terminal 3/10 of the small intestine (measured in the oral-rectal direction, i.e. the terminal ileum, which contains the active Na^+ -dependent bile acid transport system) were used for preparation of the brush-border membrane vesicles. The intestines were frozen at -80° C. under nitrogen in plastic bags. The frozen intestines were thawed in a water bath at 30° C. in order to prepare the membrane vesicles. The mucosa was scraped off and suspended in 60 ml of ice-cold 12 mM trys/HCl buffer (pH 7.1)/300 mM mannitol, 5 mM EGTA/10 mg/l of phenylmethylsulfonyl fluoride/1 mg/l of soybean trypsin inhibitor (32 U/mg)/0.5 mg/l of bovine lung trypsin inhibitor (193 U/mg)/5 mg/l of bacitracin. After diluting to 300 ml with ice-cold distilled water, the suspension was homogenized with ice-cooling for 3 minutes at 75% of maximum power using an Ultraturrax (18 rod, IKA Werk Staufen, Federal Republic of Germany). After addition of 3 ml of 1M MgCl2 solution (final concentration 10 mM), the homogenate was allowed to stand at 0° C. for exactly 1 minute. As a result of addition of Mg^2+, the cell membranes aggregate and precipitate with the exception of the brush-border membranes. After centrifugation at 3,000×g (5,000 rpm, SS-34 rotor) for 15 minutes, the precipitate is discarded and the supernatant which contains the brush-border membranes is centrifuged at 26,700×g (15,000 rpm, SS-34 rotor) for 30 minutes. The supernatant was discarded, and the precipitate was rehomogenized in 60 ml of 12 mM tris/HCl buffer (pH 7.1)/60 mM mannitol, 5 mM EGTA using a Potter Elvejhem homogenizer (Braun Melsungen, 900 rpm, 10 strokes). After addition of 0.1 ml of 1M MgCl2 solution and an incubation time of 15 minutes at 0° C., the mixture was again centrifuged at 3,000×g for 15 minutes. The supernatant was then again centrifuged at […] (15,000 rpm, SS-34 rotor) for 30 minutes. The precipitate was taken up in 30 ml of 10 mM tris/hepes buffer (pH 7.4)/300 mM mannitol and homogeneously resuspended by 20 strokes in a Potter Elvejhem homogenizer at 1,000 rpm. After centrifugation at 48,000×g (20,000 rpm, SS-34 rotor) for 30 minutes, the precipitate was taken up in 0.5 to 2 ml of tris/hepes buffer (pH 7.4)/280 mM mannitol (final concentration 20 mg/ml) and resuspended with the aid of a tuberculin syringe using a 27 gauge needle. The vesicles were either used immediately after preparation for transport investigations or stored at -196° C. in liquid nitrogen in 4 mg portions.
The absorption of substrates into brush-border membrane vesicles was determined by means of the so-called membrane filtration technique. 10 μl of the vesicle suspension (100 μg of protein) were pipetted on the wall of a polystyrene incubation tube (11×70 mm) as a drop which contained the incubation medium together with the corresponding ligands (90 μl ). […] The incubation medium was filtered through a polyvinylidene fluoride membrane filter (SYHV LO 4NS, 0.45 μm, 4 mm .phi., Millipore, Eschborn, Federal Republic of Germany). The transport measurement was begun by mixing the vesicles with the incubation medium. […] After the desired incubation time (customarily 1 min), the transport was stopped by addition of 1 ml of ice-cold stop solution (10 mM tris/hepes, (pH 7.4)/150 mM KCl). The resulting mixture was immediately filtered off with suction in a vacuum of 25 to 35 mbar through a membrane filter made of cellulose nitrate (ME 25, 0.45 μm, 25 mm diameter, Schleicher & Schuell, Dassell, Federal Republic of Germany). The filter was subsequently washed with 5 ml of ice-cold Stop solution.

O=C(O)CCCc1ccc(N(CCCl)CCCl)cc1 [Chlorambucil, [4-(bis-N-(2'-chloroethyl)-aminophenyl)]-butyric acid, reference compound]
Conc. of W or a metabolite of W in bile ([1]; bile at 2 min): 1012 surface area units | Conc. of W or a metabolite of W in bile ([1]; bile at 4 min): 885 surface area units | Conc. of W or a metabolite of W in bile ([1]; bile at 6 min): 1044 surface area units | Conc. of W or a metabolite of W in bile ([1]; bile at 8 min): 1160 surface area units | Conc. of W or a metabolite of W in bile ([1]; bile at 10 min): 810 surface area units | Conc. of W or a metabolite of W in bile ([1]; bile at 15 min): 689 surface area units | Conc. of W or a metabolite of W in bile ([1]; bile at 20 min): 1481 surface area units | Conc. of W or a metabolite of W in bile ([1]; bile at 30 min): 704 surface area units | Conc. of W or a metabolite of W in bile ([1]; bile at 40 min): 511 surface area units | Conc. of W or a metabolite of W in bile ([1]; bile at 60 min): 620 surface area units | Conc. of W or a metabolite of W in bile ([1]; bile at 70 min): 1769 surface area units | Conc. of W or a metabolite of W in bile ([1]; bile at 80 min): 501 surface area units | Conc. of W or a metabolite of W in bile ([1]; bile at 90 min): 813 surface area units | Conc. of W or a metabolite of W in bile ([1]; bile at 100 min): 523 surface area units | Conc. of W or a metabolite of W in bile ([1]; bile at 110 min): 604 surface area units | Conc. of W or a metabolite of W in bile ([1]; bile at 120 min): 531 surface area units

C[C@H](CCC(=O)O)[C@H]1CC[C@H]2[C@@H]3[C@H](O)C[C@@H]4C[C@@H](OCCNC(=O)[C@@H](C)NC(=O)[C@@H](C)NC(=O)OCc5ccccc5)CC[C@]4(C)[C@H]3C[C@H](O)[C@]12C [Example 122, Z-D-Ala-D-Ala-NH--(CH2)2 --GS--OH]
IC25 [2]: 19 µM | IC75 [2]: 237 µM | IC50 [2]: 107 µM

CC(C)c1nc(-c2ccccc2)cc(-c2ccc(F)cc2)c1/C=C/[C@@H]1C[C@@H](O)CC(=O)O1 [Example 125, reference compound]
IC25 [2]: 12 µM | IC75 [2]: 104 µM | IC50 [2]: 46 µM

C[C@H](CCC(=O)NCCS(=O)(=O)O)[C@H]1CC[C@H]2[C@@H]3[C@H](O)C[C@@H]4C[C@H](O)CC[C@]4(C)[C@H]3CC[C@]12C [Taurochenodeoxycholate, reference compound]
IC50 [2]: 23 µM

C[C@H](CCC(=O)NCCS(=O)(=O)O)[C@H]1CC[C@H]2[C@@H]3CC[C@@H]4C[C@H](O)CC[C@]4(C)[C@H]3CC[C@]12C [Taurolithocholate, reference compound]
IC50 [2]: 12 µM

C[C@H](CCC(=O)NCCS(=O)(=O)O)[C@H]1CC[C@H]2[C@@H]3CC[C@@H]4C[C@H](OS(=O)(=O)O)CC[C@]4(C)[C@H]3CC[C@]12C [Taurolithocholate-3-sulfate, reference compound]
IC50 [2]: 245 µM
